# Active and inactive are the calls of the source.
# Key:
# HEK293 [1] = assay: cells; format: functional, cell-based; settings: Homo sapiens
# HEK293 [2] = assay: NOD2 signaling inhibitors in MDP-stimulated cells, cell-based, uHTS, luminescence (AID 2001); format: functional; settings: Homo sapiens
# [3] = molecular target: T1, Nucleotide-binding oligomerization domain-containing protein 1 (Homo sapiens, UniProt Q9Y239); assay: blockers of NOD1 pathway activity – revised, SAR follow-up (AID 2333); format: functional
# T1 sequence (Q9Y239 whole entry): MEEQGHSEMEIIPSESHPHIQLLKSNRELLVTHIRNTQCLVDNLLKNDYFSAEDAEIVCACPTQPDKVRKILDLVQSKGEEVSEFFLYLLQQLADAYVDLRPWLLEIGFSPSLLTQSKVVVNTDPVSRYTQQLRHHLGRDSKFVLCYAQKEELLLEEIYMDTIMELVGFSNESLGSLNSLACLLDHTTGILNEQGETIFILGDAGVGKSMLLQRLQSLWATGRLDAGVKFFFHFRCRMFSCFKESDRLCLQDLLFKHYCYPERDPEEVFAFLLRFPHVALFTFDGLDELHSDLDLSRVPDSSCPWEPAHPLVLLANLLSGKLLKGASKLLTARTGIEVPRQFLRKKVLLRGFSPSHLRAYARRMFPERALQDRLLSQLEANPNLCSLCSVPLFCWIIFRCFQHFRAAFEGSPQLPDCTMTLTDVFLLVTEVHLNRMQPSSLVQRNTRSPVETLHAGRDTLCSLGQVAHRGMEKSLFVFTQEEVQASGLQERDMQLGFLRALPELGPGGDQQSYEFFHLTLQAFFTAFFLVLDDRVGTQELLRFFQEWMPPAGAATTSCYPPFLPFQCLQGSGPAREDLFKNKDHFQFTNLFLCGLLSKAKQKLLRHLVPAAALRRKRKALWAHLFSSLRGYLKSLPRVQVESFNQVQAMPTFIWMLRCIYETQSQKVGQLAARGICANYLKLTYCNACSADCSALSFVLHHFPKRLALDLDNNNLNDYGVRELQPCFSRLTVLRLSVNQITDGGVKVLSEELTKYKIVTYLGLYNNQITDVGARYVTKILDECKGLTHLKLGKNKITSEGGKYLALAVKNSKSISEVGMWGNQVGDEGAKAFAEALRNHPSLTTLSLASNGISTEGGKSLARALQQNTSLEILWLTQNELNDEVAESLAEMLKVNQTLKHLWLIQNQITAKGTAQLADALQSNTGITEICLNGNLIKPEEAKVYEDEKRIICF
# HEK293 [4] = assay: inhibition of NOD1-driven NF-kB reporter – cell-based, luminescence, uHTS, primary screen (AID 1578); format: functional; settings: Homo sapiens
# HEK293 [5] = assay: cells; settings: Homo sapiens
# Tumor necrosis factor = Tumor necrosis factor (Homo sapiens, UniProt P01375); assay: analog potency on TNFa NF-kB signaling – cell-based, revised, SAR follow-up (AID 2337); format: functional
# Tumor necrosis factor, sequence (P01375 whole entry): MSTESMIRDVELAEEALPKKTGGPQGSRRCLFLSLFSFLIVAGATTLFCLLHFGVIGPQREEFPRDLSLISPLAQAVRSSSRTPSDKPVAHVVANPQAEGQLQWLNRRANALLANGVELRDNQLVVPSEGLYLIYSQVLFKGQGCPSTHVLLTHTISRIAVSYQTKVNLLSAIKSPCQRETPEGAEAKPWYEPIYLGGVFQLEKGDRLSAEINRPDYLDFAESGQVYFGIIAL
# HEK293 [6] = assay: cells; format: functional, cell-based; settings: Homo sapiens; remark: listed apart in the source
# [7] = molecular target: T2, Short transient receptor potential channel 4 (Mus musculus, UniProt Q9QUQ5); assay: block of DAMGO-driven TRPC4 calcium entry – cell-based, HEK293 TRPC4/mu-opioid, Fluo-4 calcium, dose response (AID 434942); format: functional;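 further: potency of inhibitors blocking the TRPC4 calcium response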
# T2 sequence (Q9QUQ5 whole entry): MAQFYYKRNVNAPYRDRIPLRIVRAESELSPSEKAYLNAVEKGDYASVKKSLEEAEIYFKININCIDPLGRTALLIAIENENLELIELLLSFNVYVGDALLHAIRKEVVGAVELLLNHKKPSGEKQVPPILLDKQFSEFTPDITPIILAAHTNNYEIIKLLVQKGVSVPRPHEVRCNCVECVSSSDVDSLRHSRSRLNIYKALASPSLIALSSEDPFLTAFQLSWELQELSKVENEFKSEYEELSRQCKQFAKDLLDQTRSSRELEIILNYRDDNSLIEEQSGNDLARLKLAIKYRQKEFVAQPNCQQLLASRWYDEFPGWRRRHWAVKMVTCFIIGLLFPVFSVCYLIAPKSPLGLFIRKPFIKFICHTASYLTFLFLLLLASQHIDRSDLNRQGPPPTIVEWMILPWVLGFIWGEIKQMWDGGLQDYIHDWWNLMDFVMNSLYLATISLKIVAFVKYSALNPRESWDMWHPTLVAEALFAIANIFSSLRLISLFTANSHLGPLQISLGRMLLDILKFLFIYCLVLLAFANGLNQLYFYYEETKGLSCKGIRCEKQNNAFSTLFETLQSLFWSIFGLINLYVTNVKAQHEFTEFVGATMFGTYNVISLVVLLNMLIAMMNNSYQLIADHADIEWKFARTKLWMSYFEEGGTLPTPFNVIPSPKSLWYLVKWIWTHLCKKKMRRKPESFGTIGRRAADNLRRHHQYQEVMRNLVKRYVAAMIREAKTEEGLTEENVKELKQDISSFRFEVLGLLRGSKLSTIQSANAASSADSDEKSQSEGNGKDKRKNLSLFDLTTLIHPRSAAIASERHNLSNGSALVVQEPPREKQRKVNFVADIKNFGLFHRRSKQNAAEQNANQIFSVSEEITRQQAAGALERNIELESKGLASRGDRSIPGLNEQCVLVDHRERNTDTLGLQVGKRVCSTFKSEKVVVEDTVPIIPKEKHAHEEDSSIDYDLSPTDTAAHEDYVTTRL
# [8] = molecular target: T3, COUP transcription factor 2 (Homo sapiens, UniProt P24468); assay: Luminescence-based cell-based high throughput dose response assay to identify inhibitors of COUP-TFII (NR2F2).; format: functional;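 further: HEK293 cells transiently cotransfected with COUP-TFII expression vector and reporter; luciferase reporter luminescence driven by COUP-TFII from the pX2-168 reporter plasmid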
# T3 sequence (P24468 whole entry): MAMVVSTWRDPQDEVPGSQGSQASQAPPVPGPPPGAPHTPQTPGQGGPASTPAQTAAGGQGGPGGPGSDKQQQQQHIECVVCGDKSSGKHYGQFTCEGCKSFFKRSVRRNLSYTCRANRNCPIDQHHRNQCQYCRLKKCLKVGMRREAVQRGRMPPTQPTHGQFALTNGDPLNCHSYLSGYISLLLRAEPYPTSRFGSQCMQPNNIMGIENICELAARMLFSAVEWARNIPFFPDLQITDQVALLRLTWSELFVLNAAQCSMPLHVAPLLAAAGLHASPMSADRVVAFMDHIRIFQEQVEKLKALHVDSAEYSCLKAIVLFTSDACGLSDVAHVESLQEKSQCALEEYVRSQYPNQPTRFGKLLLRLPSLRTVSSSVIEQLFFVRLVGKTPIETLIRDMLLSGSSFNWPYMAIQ
# [9] = Trypanosoma cruzi growth suppression in host cells – NIH3T3 host cells, beta-gal luminescence, confirmation (AID 2044); format: functional, cell-based;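 further: intracellular parasites grown in NIH/3T3 mouse fibroblasts as host cells; luminescent beta-galactosidase reporter signal from transgenic T. cruzi replicating inside host cells; inhibitors lower the luminescence signal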
# [10] = NIH3T3 cell viability loss – ATP luminescence, mouse fibroblasts, counter-screen, dose response (AID 2010); format: functional, cell-based;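 further: cells exposed to compound for about 90 hours before reading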
# Cytochrome P450 2D6 = Cytochrome P450 2D6 (Homo sapiens, UniProt P10635);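 further: CYP2D6 member of a cytochrome P450 panel assay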
# Cytochrome P450 2D6, sequence (P10635 whole entry): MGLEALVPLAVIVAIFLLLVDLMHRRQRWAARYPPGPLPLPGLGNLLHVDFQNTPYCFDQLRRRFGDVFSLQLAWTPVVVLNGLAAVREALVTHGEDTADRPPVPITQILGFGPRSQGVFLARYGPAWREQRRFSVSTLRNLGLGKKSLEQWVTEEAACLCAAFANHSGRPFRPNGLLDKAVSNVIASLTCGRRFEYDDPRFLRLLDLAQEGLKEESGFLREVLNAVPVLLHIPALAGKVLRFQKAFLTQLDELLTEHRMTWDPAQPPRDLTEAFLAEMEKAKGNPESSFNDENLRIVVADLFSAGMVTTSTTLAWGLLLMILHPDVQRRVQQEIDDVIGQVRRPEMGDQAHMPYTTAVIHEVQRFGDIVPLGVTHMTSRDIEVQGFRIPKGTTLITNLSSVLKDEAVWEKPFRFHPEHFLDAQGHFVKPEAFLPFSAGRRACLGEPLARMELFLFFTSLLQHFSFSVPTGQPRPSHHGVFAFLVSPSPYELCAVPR
# Vero [11] = assay: cells; format: functional, cell-based; settings: Chlorocebus sabaeus
# Vero [12] = assay: cells; format: functional; settings: Chlorocebus sabaeus
# Cytochrome P450 1A2 = molecular target: T4, Cytochrome P450 1A2 (Homo sapiens, UniProt P05177);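 further: PubChem cytochrome P450 panel assay, CYP1A2 panel member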
# T4 sequence (P05177 whole entry): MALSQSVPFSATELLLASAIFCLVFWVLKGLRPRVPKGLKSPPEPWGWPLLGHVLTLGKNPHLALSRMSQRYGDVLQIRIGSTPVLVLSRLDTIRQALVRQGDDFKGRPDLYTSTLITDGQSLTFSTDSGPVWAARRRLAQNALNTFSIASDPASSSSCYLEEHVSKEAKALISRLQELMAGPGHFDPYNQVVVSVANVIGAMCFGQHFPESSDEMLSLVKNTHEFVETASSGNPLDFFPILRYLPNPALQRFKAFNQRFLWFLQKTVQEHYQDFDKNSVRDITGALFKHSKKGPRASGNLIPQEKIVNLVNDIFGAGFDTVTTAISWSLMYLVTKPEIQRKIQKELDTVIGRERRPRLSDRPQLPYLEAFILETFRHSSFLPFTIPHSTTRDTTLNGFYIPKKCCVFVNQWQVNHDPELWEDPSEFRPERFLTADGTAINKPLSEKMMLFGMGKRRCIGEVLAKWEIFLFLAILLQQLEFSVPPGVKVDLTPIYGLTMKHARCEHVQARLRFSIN
# Cytochrome P450 2C9 = Cytochrome P450 2C9 (Homo sapiens, UniProt P11712)
# Cytochrome P450 2C9, sequence (P11712 whole entry): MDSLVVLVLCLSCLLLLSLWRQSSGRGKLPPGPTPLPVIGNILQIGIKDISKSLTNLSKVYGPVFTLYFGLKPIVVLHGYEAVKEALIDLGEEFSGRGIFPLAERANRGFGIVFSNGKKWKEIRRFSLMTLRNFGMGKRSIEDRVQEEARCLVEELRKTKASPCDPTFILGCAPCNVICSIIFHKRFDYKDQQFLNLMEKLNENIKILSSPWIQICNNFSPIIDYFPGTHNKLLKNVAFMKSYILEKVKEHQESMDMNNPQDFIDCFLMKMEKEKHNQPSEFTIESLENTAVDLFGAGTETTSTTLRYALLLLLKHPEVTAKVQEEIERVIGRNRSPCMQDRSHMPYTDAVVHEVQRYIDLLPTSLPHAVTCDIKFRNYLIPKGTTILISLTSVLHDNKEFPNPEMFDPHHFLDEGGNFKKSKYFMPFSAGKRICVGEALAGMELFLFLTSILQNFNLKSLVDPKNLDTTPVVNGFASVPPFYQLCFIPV
# CAAX prenyl protease 1 = molecular target: T5, CAAX prenyl protease 1 (Saccharomyces cerevisiae S288c, UniProt P47154); assay: yeast CAAX protease Ste24 inhibition – biochemical, S. cerevisiae, plate reader, cherry-pick, dose response (AID 488815)
# T5 sequence (P47154 whole entry): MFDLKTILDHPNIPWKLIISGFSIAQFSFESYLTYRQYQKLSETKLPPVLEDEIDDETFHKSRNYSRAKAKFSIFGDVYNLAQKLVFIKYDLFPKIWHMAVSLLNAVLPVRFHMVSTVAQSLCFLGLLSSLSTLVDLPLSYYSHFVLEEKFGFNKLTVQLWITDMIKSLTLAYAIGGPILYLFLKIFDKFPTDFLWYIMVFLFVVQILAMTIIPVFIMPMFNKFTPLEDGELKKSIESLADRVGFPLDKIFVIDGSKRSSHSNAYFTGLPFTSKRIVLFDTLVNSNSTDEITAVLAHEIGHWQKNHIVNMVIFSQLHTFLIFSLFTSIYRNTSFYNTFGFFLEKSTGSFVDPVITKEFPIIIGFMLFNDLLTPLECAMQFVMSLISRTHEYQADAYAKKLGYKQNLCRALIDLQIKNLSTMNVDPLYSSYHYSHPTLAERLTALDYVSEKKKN
# CAAX prenyl protease 2 = molecular target: T6, CAAX prenyl protease 2 (Homo sapiens, UniProt Q9Y256); assay: inhibition of Ras-converting CAAX protease Rce1 – biochemical, yeast membranes, quenched-peptide fluorescence, cherry-pick, dose response (AID 588849)
# T6 sequence (Q9Y256 whole entry): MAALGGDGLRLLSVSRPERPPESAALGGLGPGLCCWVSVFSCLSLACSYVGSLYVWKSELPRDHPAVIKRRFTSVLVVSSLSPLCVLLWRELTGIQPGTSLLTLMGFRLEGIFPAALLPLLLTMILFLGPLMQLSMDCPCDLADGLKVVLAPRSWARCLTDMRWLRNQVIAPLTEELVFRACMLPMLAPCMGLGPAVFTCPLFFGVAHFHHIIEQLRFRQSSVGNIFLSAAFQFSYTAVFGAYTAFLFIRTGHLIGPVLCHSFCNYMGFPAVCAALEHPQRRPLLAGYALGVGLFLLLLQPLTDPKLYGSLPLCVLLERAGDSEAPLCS
# Trypsin = Trypsin (Sus scrofa, UniProt P00761); assay: trypsin protease activity blockade – biochemical, quenched peptide fluorescence, cherry-pick, selectivity assay for Rce1 protease inhibitor project, dose response (AID 488789)
# Trypsin, sequence (P00761 whole entry): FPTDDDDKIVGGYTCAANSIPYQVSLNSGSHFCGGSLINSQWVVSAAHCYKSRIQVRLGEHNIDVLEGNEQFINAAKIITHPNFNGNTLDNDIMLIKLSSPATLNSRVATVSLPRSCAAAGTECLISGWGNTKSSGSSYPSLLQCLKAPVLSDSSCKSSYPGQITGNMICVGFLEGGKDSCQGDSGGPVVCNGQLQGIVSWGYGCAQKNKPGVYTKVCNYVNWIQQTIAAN
# [13] = viability of uninfected HEp-2 cells – cell-based, HTS, cytotoxicity control for RSV inhibitor project, dose response (AID 2410); format: functional; settings: human respiratory syncytial virus
# [14] = Counterscreen for activators of the function of SWI/SNF related, matrix associated, actin dependent regulator of chromatin, subfamily a, member 2 (SMARCA2, BRM): Luminescence-based cell-based high throughput dose response assay to identify non-selective compounds using the VP16 reporter assay.; format: functional
# [15] = molecular target: SWI/SNF-related matrix-associated actin-dependent regulator of chromatin subfamily A member 2 (Homo sapiens, UniProt P51531); assay: Luminescence-based cell-based high throughput dose response assay to identify activators of the function of SWI/SNF related, matrix associated, actin dependent regulator of chromatin, subfamily a, member 2 (SMARCA2, BRM).; format: functional
# SWI/SNF-related matrix-associated actin-dependent regulator of chromatin subfamily A member 2, sequence (P51531 whole entry): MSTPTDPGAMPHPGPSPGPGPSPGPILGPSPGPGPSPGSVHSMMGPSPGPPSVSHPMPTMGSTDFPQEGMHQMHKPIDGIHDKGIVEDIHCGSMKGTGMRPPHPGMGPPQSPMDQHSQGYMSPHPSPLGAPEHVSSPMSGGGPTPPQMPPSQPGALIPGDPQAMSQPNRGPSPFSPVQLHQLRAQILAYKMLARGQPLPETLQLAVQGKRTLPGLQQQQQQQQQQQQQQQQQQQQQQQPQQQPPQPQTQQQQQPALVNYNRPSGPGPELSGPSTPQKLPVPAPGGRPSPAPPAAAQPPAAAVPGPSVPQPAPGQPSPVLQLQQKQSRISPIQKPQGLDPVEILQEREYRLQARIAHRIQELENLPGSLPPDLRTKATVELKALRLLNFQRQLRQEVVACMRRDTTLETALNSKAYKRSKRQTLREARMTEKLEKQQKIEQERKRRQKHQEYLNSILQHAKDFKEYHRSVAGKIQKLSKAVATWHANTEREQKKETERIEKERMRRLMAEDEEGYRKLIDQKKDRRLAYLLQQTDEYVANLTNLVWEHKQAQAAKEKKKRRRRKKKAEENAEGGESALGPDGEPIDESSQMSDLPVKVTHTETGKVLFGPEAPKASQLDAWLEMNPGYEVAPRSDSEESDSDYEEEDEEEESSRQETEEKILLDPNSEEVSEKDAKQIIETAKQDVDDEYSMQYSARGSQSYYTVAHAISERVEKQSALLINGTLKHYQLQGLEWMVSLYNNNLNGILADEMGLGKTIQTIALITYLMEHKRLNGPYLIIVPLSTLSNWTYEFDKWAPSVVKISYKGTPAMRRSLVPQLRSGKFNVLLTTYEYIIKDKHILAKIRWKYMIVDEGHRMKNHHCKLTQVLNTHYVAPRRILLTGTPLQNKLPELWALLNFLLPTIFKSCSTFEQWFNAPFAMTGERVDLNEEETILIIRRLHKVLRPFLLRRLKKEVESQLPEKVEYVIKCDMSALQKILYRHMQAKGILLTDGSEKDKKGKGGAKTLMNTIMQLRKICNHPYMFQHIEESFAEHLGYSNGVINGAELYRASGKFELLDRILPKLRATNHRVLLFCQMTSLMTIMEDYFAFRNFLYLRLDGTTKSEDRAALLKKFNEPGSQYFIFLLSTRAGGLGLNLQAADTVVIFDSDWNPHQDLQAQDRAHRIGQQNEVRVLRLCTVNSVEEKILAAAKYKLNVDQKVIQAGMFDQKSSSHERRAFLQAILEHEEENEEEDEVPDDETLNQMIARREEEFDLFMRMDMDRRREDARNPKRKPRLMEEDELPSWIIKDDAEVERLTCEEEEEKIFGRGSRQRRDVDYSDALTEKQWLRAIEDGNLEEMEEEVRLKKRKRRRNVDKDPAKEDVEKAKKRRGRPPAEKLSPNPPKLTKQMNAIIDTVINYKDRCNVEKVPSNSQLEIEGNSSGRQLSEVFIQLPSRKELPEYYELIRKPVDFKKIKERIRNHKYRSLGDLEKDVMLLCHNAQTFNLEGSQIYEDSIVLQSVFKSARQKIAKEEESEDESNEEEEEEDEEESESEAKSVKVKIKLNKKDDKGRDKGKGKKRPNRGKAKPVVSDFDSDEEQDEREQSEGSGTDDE
compound,measurement,setting,value
Cc1oc(-c2cccc3ccccc23)nc1CN1CCN(c2ncnc3ccccc23)CC1,IC50,HEK293 [1],6.63 µM (active)
same,IC50,HEK293 [2],3.28 µM (active)
same,IC50,[3],> 20 µM (inactive)
same,EC50,HEK293 [4],7.79 µM (active)
same,IC50,HEK293 [5],> 20 µM (inactive)
same,IC50,Tumor necrosis factor,> 20 µM (inactive)
same,IC50,HEK293 [6],4.08 µM (active)
N=c1c2c(n(Cc3ccc(Cl)cc3)c3c1CCC3)CCC2,EC50,[7],7.5 µM (active)
same,IC50,HEK293 [1],> 20 µM (inactive)
same,IC50,[8],9.25 µM (active)
same,IC50,HEK293 [2],15.4 µM (inactive)
same,EC50,[9],0.443 µM (active)
same,EC50,HEK293 [4],10.2 µM (active)
same,EC50,[10],> 60 µM (not active)
same,IC50,HEK293 [6],11.8 µM (active)
COC(=O)C/C=C\[C@@H](C)[C@@H](/C=N\OC[C@@H](O)COCc1ccco1)OC,AC50,Cytochrome P450 2D6,inconclusive
COc1cc(C(=O)/C=C/c2cccnc2)ccc1O,IC50,Vero [11],> 25 µM (active)
same,CC50,Vero [12],21.2 µM (active)
COc1ccc(-n2nnnc2/C=C\Nc2ccccc2C(=O)c2ccccc2)cc1,AC50,Cytochrome P450 1A2,22.4 µM (inconclusive)
same,AC50,Cytochrome P450 2D6,inconclusive
same,AC50,Cytochrome P450 2C9,inconclusive
CC[C@H]1CN(C)[C@H]2Cc3c([nH]c4ccccc34)C(=O)C[C@H]1[C@H]2C(=O)OC,AC50,Cytochrome P450 2D6,inconclusive
NS(=O)(=O)c1ccc(N/N=C/c2cn(-c3ccccc3)nc2-c2cccs2)cc1,AC50,CAAX prenyl protease 1,7.44 µM (active)
same,CC50,Vero [12],11.3 µM (active)
same,AC50,CAAX prenyl protease 2,16.7 µM (active)
same,AC50,Trypsin,7.03 µM (active)
same,CC50,[13],12.2 µM (active)
same,EC50,[14],> 91.2 µM (inactive)
same,EC50,[15],> 91.2 µM (inactive)

# From ChEMBL document CHEMBL1201862, “PubChem BioAssay data set” (2004)
